Measured values as given in US11878028B1 (HENAN GENUINE BIOTECH CO., LTD., priority 2023, dated 2024).

Legend:
[1] = tested on: human lung cancer NCI-H1975 (EGFRL858R/T790M) cell line; test: Anti-tumor effect of azvudine with doxitinib in NCI-H1975 subcutaneous xenograft mice (Example 2); format: in vivo, BALB/c nude mice; conditions: for Tumor volume / Tumor volume on the 20th day: mean ± SEM, azvudine 1 mg/kg, doxitinib […], combination 1 + […]; for Tumor volume: in mm³
From the text: (§1) Animals were kept in IVC (independent ventilation system) cages (4 per cage) in SPF grade animal room. The number of animals in the cage, gender, strain, date of receipt, administration regimen, experiment number, group and date of start of the experiment were indicated on the animal information card for each cage. All cages, bedding and drinking water were sterilized before use. Cages, feed and drinking water were changed twice a week. The breeding environment and light conditions were as follows: • Temperature: 20˜26° C. • Humidity: 40˜70% • Lighting cycle: 12 hours of light, 12 hours of no light (the light was turned on at 8 am and turned off at 8 pm) • Cage: Cages were made of polycarbonate, with a volume of 325 mm×210 mm×180 mm. The bedding was corn cobs, and was changed twice a week. • Food: Experimental animals had free access to food (irradiation sterilized, dry pelleted food) throughout the whole experimental process. • Drinking water: Experimental animals can freely drink sterilized water. • Cage identification: The number of animals in the cage, gender, strain, date of receipt, • administration regimen, experiment number, group and date of start of the experiment should be indicated on the animal information card for each cage. • Animal identification: Experimental animals were identified with ear tags.
NCI-H1975 cells were cultured in RPMI 1640 medium containing 10% fetal bovine serum in a 37° C. and 5% CO2 incubator. The cells were routinely passaged once a week. When the cell saturation reached 80%-90% and the number achieved the requirement, the cells were collected, counted and inoculated.
0.1 mL (5×10^6) of NCI-H1975 cells were subcutaneously inoculated on the right back of each mouse, and the grouping administration was started when the average tumor volume reached about 154 mm 3.
The experimental index was to investigate whether tumor growth was inhibited, delayed or cured. Tumor diameter was measured with a vernier caliper twice a week or every other day. The tumor volume was calculated according to the formula of: V=0.5a×b^2, where a and b represented the long diameter and short diameter of the tumor, respectively.
The anti-tumor efficacy of the compounds was evaluated by TGI (%) or relative tumor proliferation rate T/C (%). TGI (%) reflected the inhibition rate of tumor growth.
Relative tumor proliferation rate T/C (%) was calculated according to the formula as follows: T/C %=TRTV/CRTV×100% (TRTV represented the average RTV of the treatment group; CRTV Represented the Average RTV of the Negative Control Group). Relative Tumor Volume (RTV) was calculated based on the results of measurement of tumor according to the formula of RTV=Vt/V0, where V0 represented the tumor volume measured during grouping administration (i.e. d0), and Vt represented the tumor volume obtained in a certain measurement, and TRTV and CRTV were collected from the data on the same day.
Statistical analysis included mean and standard error (SEM) of tumor volume at each time point for each group (see Table 3 for specific data). […] The comparison between two groups was analyzed by T-test, and the comparison between three or more groups was analyzed by one-way ANOVA. All data analysis was performed with Prism. p<0.05 was considered significant difference.

[2] = tested on: human lung cancer NCI-H1975 (EGFRL858R/T790M) cell line; test: Anti-tumor effect of azvudine with osimertinib in NCI-H1975 subcutaneous xenograft mice (Example 1); format: in vivo, BALB/c nude mice; conditions: for Tumor volume on the 28th day of grouping administration: day 28; for Tumor volume on the 28th day of grouping administration / Tumor weight: mean ± standard error; for Tumor weight / Tweight/Cweight: end of experiment; for Tumor weight: combination; for Tweight/Cweight: tumor weight of treatment group / solvent control group
From the text: as §1, with “The breeding environment and light conditions were as follows: • Temperature: 20˜26° C. • Humidity: 40˜70% • Lighting cycle: 12 hours of light, 12 hours of no light (the light was turned on at 8 am and turned off at 8 pm) • Cage: Cages were made of polycarbonate, with a volume of 325 mm×210 mm×180 mm.” left out
When the cell fusion degree of each bottle reached more than 90%, the cells were digested and resuspended in PBS. The cells were counted to reach a concentration of 5×10^7/ml by using a cell counter, and each mouse was injected with 0.1 ml of cell suspension. The 8th generation cells were inoculated subcutaneously in nude mice. When the tumor grew to about 800 mm^3, the tumor was taken out and cut into a size of 2*2*2 mm^3. The chopped tumor was inoculated on the right back of each mouse. When the average volume of the tumor measured after inoculation reached 100-120 mm^3, grouping administration was started using a random stratified grouping method according to the tumor volume and animal body weight. The lung cancer cell line model was randomly divided into 4 experimental groups with 8 mice in each group. The mice were continuously administered for 28 days after grouping.
(Ti: mean tumor volume of the treatment group on the i^th day of administration, T0: mean tumor volume of the treatment group on the 0th day of administration; Vi: mean tumor volume of the solvent control group on the i^th day of administration, V0: mean tumor volume of the solvent control group on the 0th day of administration)
At the end of the experiment, the surviving animals were euthanized, and the tumor tissue was taken, and weighed to obtain the tumor weight.

[3] = based on tumor volume on the 20th day after administration
[4] = azvudine 1 mpk, osimertinib 2.5 mpk, combination 2.5 + 1 mpk
[5] = azvudine 1 mpk, osimertinib 2.5 mpk

Molecule | T/C (relative tumor proliferation rate) [1, 3] [%] | TGI [1, 3] [%] | Tumor volume ([1]; day 0 after administration) | Tumor volume ([1]; day 3 after administration) | Tumor volume ([1]; day 6 after administration) | Tumor volume ([1]; day 10 after administration) | Tumor volume ([1]; day 13 after administration) | Tumor volume ([1]; day 17 after administration) | Tumor volume on the 20th day ([1]; day 20 after administration) | Tumor volume ([1]; day 20 after administration) | Tumor volume ([1]; day 24 after administration) | Effect on tumor proliferation (in words) ([2]; NCI-H1975 tumor-bearing mouse model) | TGITV (tumor volume inhibition rate) ([2]; after 28 days of administration, azvudine 1 mpk, osimertinib 2.5 mpk, combination 2.5 + 1 mpk) [%] | TGITV (tumor volume inhibition rate) ([2]; after 28 days of administration, azvudine 1 mpk, osimertinib 2.5 mpk, combination 2.5 + 1 mpk, listed as azvudine) [%] | Tumor volume on the 28th day of grouping administration [2, 4] [mm^3] | Tumor weight [2, 5] [mg] | Tweight/Cweight [2] [%] | Effect on tumor growth (in words) ([1]; NCI-H1975 xenograft tumor mouse model) | TGITV (tumor volume inhibition rate) ([2]; mouse, in vivo) [%]
doxitinib | 15.77 | 87.50 | 154 ± 12 | 180 ± 19 | 232 ± 27 | 277 ± 34 | 350 ± 65 | 395 ± 86 | 492 ± 109 mm3 | 492 ± 109 | 802 ± 220 | – | – | – | – | – | – | – | –
[N-]=[N+]=N[C@]1(CO)O[C@@H](n2ccc(N)nc2=O)[C@@H](F)[C@@H]1O [Azvudine, azvudine] | – | 54.01 | 154 ± 11 | 252 ± 25 | 447 ± 46 | 614 ± 78 | 774 ± 106 | 1,102 ± 118 | 1,396 ± 162 mm3 | 1,396 ± 162 | 2,382 ± 305 | inhibitory effect on tumor proliferation in a dose-dependent manner | 35.7 | 35.7 | 628.3 ± 165.4 | 879.3 ± 226.9 | 49.5 | inhibitory effect on tumor growth in a dose-dependent manner | –
C=CC(=O)Nc1cc(Nc2nccc(-c3cn(C)c4ccccc34)n2)c(OC)cc1N(C)CCN(C)C [Osimertinib, osimertinib] | – | – | – | – | – | – | – | – | – | – | – | – | – | – | 377.9 ± 90.8 | 716.9 ± 207.4 | 40.3 | – | 66.4
